The term Ki denotes the equilibrium dissociation constant of an inhibitor or competing ligand from its target. A high value points to weaker binding.

One test addresses Carbonic anhydrase 2 (Homo sapiens, UniProt P00918). The experiment in a line: Inhibition of human carbonic anhydrase 2 preincubated for 6 hrs at 4 degC measured for 10 to 100 secs by stopped-flow carbon dioxide hydration assay.
The next test concerns the target Carbonic anhydrase 1 (Homo sapiens, UniProt P00915). In words: Inhibition of human carbonic anhydrase 1 preincubated for 6 hrs at 4 degC measured for 10 to 100 secs by stopped-flow carbon dioxide hydration assay.
The target in a further test is Carbonic anhydrase 12 (Homo sapiens, UniProt O43570). In words: Inhibition of human carbonic anhydrase 12 preincubated for 6 hrs at 4 degC measured for 10 to 100 secs by stopped-flow carbon dioxide hydration assay.
For a further test, the target named is Carbonic anhydrase 9 (Homo sapiens, UniProt Q16790). In words: Inhibition of human carbonic anhydrase 9 catalytic domain preincubated for 6 hrs at 4 degC measured for 10 to 100 secs by stopped-flow carbon dioxide hydration assay.

Chain of Carbonic anhydrase 12 (O43570 whole entry, the tested form may be a part): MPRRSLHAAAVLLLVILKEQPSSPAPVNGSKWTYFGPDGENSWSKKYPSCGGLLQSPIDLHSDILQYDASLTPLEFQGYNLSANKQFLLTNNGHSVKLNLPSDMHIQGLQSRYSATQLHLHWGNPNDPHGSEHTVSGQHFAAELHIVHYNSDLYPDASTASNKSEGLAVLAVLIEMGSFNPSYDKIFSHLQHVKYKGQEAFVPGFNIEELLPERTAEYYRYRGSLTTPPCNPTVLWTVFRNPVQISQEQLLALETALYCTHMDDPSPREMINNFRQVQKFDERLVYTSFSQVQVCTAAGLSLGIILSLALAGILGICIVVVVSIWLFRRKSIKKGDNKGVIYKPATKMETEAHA
Chain of Carbonic anhydrase 1 (P00915 whole entry): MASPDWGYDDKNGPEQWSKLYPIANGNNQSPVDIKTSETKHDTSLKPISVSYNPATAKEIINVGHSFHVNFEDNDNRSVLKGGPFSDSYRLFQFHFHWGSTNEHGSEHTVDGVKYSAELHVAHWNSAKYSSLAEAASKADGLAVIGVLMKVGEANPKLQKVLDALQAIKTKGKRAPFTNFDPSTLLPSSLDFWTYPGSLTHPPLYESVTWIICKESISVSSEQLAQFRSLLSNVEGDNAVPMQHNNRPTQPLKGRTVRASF

Regarding `CC(Sc1nc(-c2ccc(Cl)c(Cl)c2)c(C#N)c(=O)[nH]1)C(=O)Nc1ccc(S(N)(=O)=O)cc1` (stereo not given), the inhibitory constant (Ki) on Carbonic anhydrase 2 was found to be 5.1 nM; on Carbonic anhydrase 1, 48 nM; at Carbonic anhydrase 12, 7.8 nM; on Carbonic anhydrase 9, 19 nM.

Consider `CCC(Sc1nc(-c2cccc(OC)c2)c(C#N)c(=O)[nH]1)C(=O)Nc1ccc(S(N)(=O)=O)cc1` (stereo not given), for which the inhibition constant Ki at Carbonic anhydrase 2 turned out to be 6.4 nM; on Carbonic anhydrase 1, 32 nM; on Carbonic anhydrase 12, 24 nM; on Carbonic anhydrase 9, 24 nM.

Consider `CC(Sc1nc(-c2ccc(Cl)c(F)c2)c(C#N)c(=O)[nH]1)C(=O)Nc1ccc(S(N)(=O)=O)cc1` (stereo not given), for which the inhibition constant Ki on Carbonic anhydrase 2 is 6.1 nM; at Carbonic anhydrase 1 it was 34 nM; at Carbonic anhydrase 12 it was 9.1 nM; at Carbonic anhydrase 9, 37 nM.

For the compound `CC(Sc1nc(-c2ccc(Cl)cc2)c(C#N)c(=O)[nH]1)C(=O)Nc1ccc(S(N)(=O)=O)cc1` (stereo not given), the values for the inhibition constant (Ki) at Carbonic anhydrase 2, on Carbonic anhydrase 1 and on Carbonic anhydrase 12 were 5 nM, 83 nM and 9.2 nM, respectively.

These data come from ChEMBL document CHEMBL3813660, “Kinetic and X-ray crystallographic investigations of substituted 2-thio-6-oxo-1,6-dihydropyrimidine-benzenesulfonamides acting as carbonic anhydrase inhibitors” (Bioorg Med Chem, 2016).
